Results filed as inconclusive are left out. Calls of active or inactive are those of the source.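 How the source made its calls: active means Compounds that reduce signal, with fitted half-maximal dose at or under twice the top valid tested dose; inconclusive means Poor fit, or flat curve losing 30 to 70% of signal; inactive means Potency past limit, flat within 30%, or opposite direction.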
Assay: viability loss in HEK293T cells – cell-based, ATP luminescence, cherry-pick samples, cytotoxicity control, dose response (AID 687005)
Details: HEK293T viability, ATP luminescence (CellTiter-Glo), 48 h

Row | SMILES | activity change, negative = cytotoxicity (at 26 µM (top of the series)) | also measured
1 | CCCNC(=O)N(C)C[C@@H]1Oc2ncc(C#CCc3ccccc3)cc2C(=O)N([C@@H](C)CO)C[C@@H]1C | 12% (inactive) | –
2 | C[C@@H]1CN([C@H](C)CO)C(=O)c2cc(NS(=O)(=O)c3ccccc3)ccc2O[C@H]1CN(C)C(=O)NC1CCCCC1 | – | activity change, negative = cytotoxicity (at 23.5 µM (top of the series)): -10.5% (inactive)
3 | C/C=C/c1ccc([C@@H]2[C@@H](CNC(=O)c3ccccc3)N(C(C)=O)[C@H]2CO)cc1 | 13.1% (inactive) | –
4 | CCN(Cc1ccccc1)C(=O)COc1ccccc1 | -2.56% (inactive) | –
5 | O=C([C@@H]1[C@@H](CO)[C@@H]2Cn3c(cccc3=O)[C@H]1N2Cc1cccc(Cl)c1)N1CCOCC1 | -9.53% (inactive) | –
6 | Cc1ccc(NC(=O)[C@H](C)NC(=O)C2CCN(C(=O)[C@@H](N)C(C)C)CC2)cc1 | -1.97% (inactive) | –
7 | C[C@@H]1CCCCO[C@@H](CN(C)S(=O)(=O)c2cccs2)[C@H](C)CN([C@@H](C)CO)C(=O)c2cc(NC(=O)CCC(F)(F)F)ccc2O1 | -7.43% (inactive) | –
8 | CC(C)NC(=O)Nc1ccc2c(c1)C(=O)N([C@@H](C)CO)C[C@@H](C)[C@H](CN(C)Cc1ccncc1)OCCCC[C@@H](C)O2 | 75.6% (inactive) | –
9 | CCCNC(C)C(=O)Nc1ccccc1C (centres undefined) | -25.6% (inactive) | –
10 | O=C(Cc1cccs1)N1CCN(c2ccccc2)CC1 | – | activity change, negative = cytotoxicity (at 42 µM (top of the series)): 21.1% (inactive)
11 | Cc1noc(C)c1NC(=O)N(C)C[C@H]1Oc2ccc(NS(=O)(=O)c3cn(C)cn3)cc2CC(=O)N([C@H](C)CO)C[C@H]1C | – | activity change, negative = cytotoxicity (at 23.5 µM (top of the series)): -32.1% (inactive)
12 | C[C@@H]1CN([C@@H](C)CO)C(=O)c2cccc(NC(=O)c3ccncc3)c2O[C@H]1CN(C)C(=O)Nc1ccccc1 | 6.14% (inactive) | –
13 | CCC(=O)N(C)C[C@H]1Oc2cc(C#CC(C)(C)O)ccc2S(=O)(=O)N([C@H](C)CO)C[C@@H]1C | 41.1% (inactive) | –
14 | COCC(=O)NC[C@H]1N[C@H](CO)[C@H]1c1ccc(C2=CCCC2)cc1 | -13.3% (inactive) | –
15 | C[C@@H](NC(=O)C[C@@H]1CC[C@H]2[C@@H](COC[C@@H](O)CN2Cc2cc(F)ccc2F)O1)c1ccccc1 | -19.7% (inactive) | –
16 | CC=Cc1ccc2n(c1=O)C[C@@H]1[C@@H](CO)[C@H](C(=O)NCc3ccc4c(c3)OCO4)[C@H]2N1C(=O)C1CC1 (mixture of isomers) | -8.54% (inactive) | –
17 | C/C=C/c1ccc([C@@H]2[C@@H](CNC(=O)C3CC3)N(C(=O)CC)[C@H]2CO)cc1 | -5.25% (inactive) | –
18 | CCCC(=O)N1CCC1(C)C(=O)Nc1cc(C)ccc1C (centres undefined) | – | activity change, negative = cytotoxicity (at 42 µM (top of the series)): -18.3% (inactive)
19 | O=C1CCC(C(=O)Nc2cccc(C(F)(F)F)c2)N1 (centres undefined) | 22% (inactive) | –
20 | Cc1noc(C)c1NC(=O)Nc1ccc2c(c1)C(=O)N([C@H](C)CO)C[C@@H](C)[C@H](CN(C)C(=O)Nc1ccc(F)cc1)OCCCC[C@@H](C)O2 | -26.1% (inactive) | –
21 | CCCNC(=O)[C@H]1[C@H](CO)[C@H]2Cn3c(cccc3=O)[C@@H]1N2C(=O)Nc1cc(F)ccc1F | 42.5% (inactive) | –
22 | CO[C@H]1CC[C@H]2CCOc3c(C#N)cccc3C(=O)N(C)C[C@@H](C)C(=O)N(C)C[C@H]1O2 | -16.5% (inactive) | –

Row | SMILES | activity change, negative = cytotoxicity (at 26 µM (top of the series)) | also measured
23 | CNC[C@@H]1Oc2ccc(NS(=O)(=O)c3ccc(Cl)cc3)cc2C(=O)N([C@H](C)CO)C[C@H]1C | 45.6% (inactive) | –
24 | CNC[C@H]1Oc2cc(Br)ccc2S(=O)(=O)N([C@H](C)CO)C[C@H]1C | 37.7% (inactive) | –
25 | COc1cccc(C#Cc2cnc3c(c2)C(=O)N([C@H](C)CO)C[C@@H](C)[C@@H](CN(C)C(=O)C2CCOCC2)O3)c1 | – | activity change, negative = cytotoxicity (at 23.5 µM (top of the series)): 6.67% (inactive)
26 | CC(C)NC(=O)N(C)C[C@H]1OCCCC[C@H](C)Oc2ccc(NC(=O)c3ccccc3)cc2C(=O)N([C@@H](C)CO)C[C@@H]1C | 55.3% (inactive) | –
27 | CC(C)NC(=O)Nc1ccc2c(c1)C(=O)N([C@@H](C)CO)C[C@@H](C)[C@H](CN(C)C(=O)Cc1ccccc1)OCCCC[C@@H](C)O2 | 37.8% (inactive) | –
28 | COc1ccc(OC(C)C(=O)NC(C)c2ccccc2)cc1 (centres undefined) | -8.71% (inactive) | –
29 | CO[C@H]1CN(C)C(=O)c2cc(NS(=O)(=O)CC(F)(F)F)ccc2OC[C@H](C)N(Cc2cccnc2)C[C@@H]1C | 20.5% (inactive) | –
30 | COC(=O)C1=C(C)N(Cc2ccccc2)C(=S)N[C@H]1c1ccc(Br)cc1 | – | activity change, negative = cytotoxicity (at 23.5 µM (top of the series)): 13.4% (inactive)
31 | O=C(CCN1CCCCC1)NCC[C@@H]1CC[C@H](NC(=O)c2ccc(F)cc2)[C@@H](CO)O1 | 9.77% (inactive) | –
32 | O=C(Cc1ccccc1)N[C@H]1C=C[C@@H](CC(=O)N2CCOCC2)O[C@@H]1CO | -14.2% (inactive) | –
33 | CC(C)NC(=O)Nc1ccc2c(c1)C(=O)N([C@@H](C)CO)C[C@@H](C)[C@H](CN(C)C(=O)c1ccncc1)OCCCC[C@H](C)O2 | 23.3% (inactive) | –
34 | O=C(Nc1ccc(F)cc1)N1C[C@@H]2[C@H](c3ccccc31)[C@H](CO)N2Cc1cocn1 | -11.6% (inactive) | –
35 | CC(C)NC(=O)N(C)C[C@@H]1Oc2c(NC(=O)C3CCCCC3)cccc2C(=O)N([C@@H](C)CO)C[C@@H]1C | 24.4% (inactive) | –
36 | CC=Cc1ccc2n(c1=O)C[C@@H]1[C@@H](CO)[C@H](C(=O)N3CCc4ccccc4C3)N(C(=O)C3CC3)[C@H]21 (mixture of isomers) | -3.28% (inactive) | –
37 | CCC(=O)N1C[C@H](O)COC[C@@H]2O[C@@H](CC(=O)NCc3ccccc3Cl)CC[C@H]21 | 1.37% (inactive) | –
38 | C[C@@H](O)C#Cc1ccc([C@@H]2[C@H]3CN(CC4CC4)CCCCN3[C@H]2CO)cc1 | 34.5% (inactive) | –
39 | O=C(C[C@@H]1CC[C@@H]2[C@H](COC[C@H](O)CN2Cc2cccc(C(F)(F)F)c2)O1)NCc1ccc(Cl)cc1 | 9.32% (inactive) | –
40 | COc1cccc(S(=O)(=O)Nc2ccc3c(c2)OC[C@@H](C)NC[C@H](C)[C@@H](OC)CN(C)C3=O)c1 | -6.17% (inactive) | –
41 | C[C@@H]1CN([C@H](C)CO)C(=O)c2cc(C3=CCCCC3)cnc2O[C@H]1CN(C)C(=O)Cc1cccnc1 | -11.9% (inactive) | –
42 | CNC[C@@H]1Oc2c(NS(=O)(=O)c3ccc(Cl)cc3)cccc2C(=O)N([C@H](C)CO)C[C@H]1C | 24.2% (inactive) | –
43 | CNC[C@@H]1Oc2cc(Br)ccc2S(=O)(=O)N([C@H](C)CO)C[C@H]1C | 28.3% (inactive) | –
44 | COCC#Cc1cnc2c(c1)C(=O)N([C@H](C)CO)C[C@@H](C)[C@@H](CN(C)C(=O)Nc1ccc(OC)cc1)O2 | -11.3% (inactive) | –

Row | SMILES | activity change, negative = cytotoxicity (at 26 µM (top of the series)) | also measured
45 | Cc1ccccc1S(=O)(=O)N[C@H]1CC[C@H](CCNS(=O)(=O)c2cccc(F)c2)O[C@H]1CO | -6.73% (inactive) | –
46 | Cc1cc(C)c(NC(=O)C(C)N2CCCCCC2)c(C)c1 (centres undefined) | 16.2% (inactive) | –
47 | O=C(C1CCOCC1)N1CC[C@@H]2[C@H]1c1cc(Br)ccc1N[C@@H]2CO | 8.11% (inactive) | –
48 | C[C@@H]1CCCCO[C@H](CN(C)Cc2ccncc2)[C@@H](C)CN([C@H](C)CO)C(=O)c2cc(N(C)C)ccc2O1 | -3.32% (inactive) | –
49 | COc1ccc(C#Cc2cnc3c(c2)C(=O)N([C@@H](C)CO)C[C@H](C)[C@@H](CN(C)C(=O)CC2CC2)O3)cc1 | -34.7% (inactive) | –
50 | CC(C)NC(=O)N(C)C[C@H]1Oc2c(NC(=O)C3CCCCC3)cccc2C(=O)N([C@H](C)CO)C[C@H]1C | 5.22% (inactive) | –
51 | C[C@H](CO)N1C[C@H](C)[C@H](CN(C)Cc2ccccc2)Oc2cc(C#Cc3ccccn3)ccc2S1(=O)=O | -48.6% (inactive) | –
52 | O=C(N[C@H]1CC[C@@H](CCn2cc(-c3ccccc3)nn2)O[C@@H]1CO)c1cnccn1 | 40.7% (inactive) | –
53 | O=C(C[C@H]1CC[C@@H]2[C@H](COC[C@@H](O)CN2Cc2cccc(C(F)(F)F)c2)O1)NCc1ccc(Cl)cc1 | – | activity change, negative = cytotoxicity (at 23.5 µM (top of the series)): 16.8% (inactive)
54 | C/C=C/c1ccc2c(c1)O[C@H](CN(C)S(=O)(=O)c1ccccc1)[C@H](C)CN([C@@H](C)CO)S2(=O)=O | -8.59% (inactive) | –
55 | Cc1cc(C(=O)Nc2ccc3c(c2)C(=O)N(C)[C@H]2CC[C@@H](CC(=O)N[C@@H](C)c4ccccc4)O[C@H]2CO3)no1 | – | activity change, negative = cytotoxicity (at 23.5 µM (top of the series)): -36.7% (inactive)
56 | O=C(C[C@H]1C=C[C@H](NC(=O)C2CCC2)[C@@H](CO)O1)NC1CCC1 | -2.82% (inactive) | –
57 | COc1ccc(NC(=O)N(C)C[C@H]2OCc3ccccc3-c3c(n(C)c4ccccc34)C(=O)N([C@H](C)CO)C[C@@H]2C)cc1 | -4.07% (inactive) | –
58 | Cc1ccc(S(=O)(=O)N[C@@H]2CC[C@H](CCNC(=O)C3CCCC3)O[C@@H]2CO)cc1 | -17.8% (inactive) | –
59 | Cc1ccc(N(CC(N)=O)S(=O)(=O)c2ccc(F)cc2)cc1 | – | activity change, negative = cytotoxicity (at 28.5 µM (top of the series)): -28% (inactive)
60 | CC(C)C#Cc1ccc([C@@H]2[C@H](CO)N3CCCCN(C(=O)c4ccc5c(c4)OCO5)C[C@@H]23)cc1 | 28.2% (inactive) | –
61 | CO[C@H]1CN(C)C(=O)c2cc(NC(=O)C3CC3)ccc2OC[C@@H](C)N(Cc2cncnc2)C[C@H]1C | -23.3% (inactive) | –
62 | C[C@@H]1CCCCO[C@@H](CN(C)C(=O)NC2CCCCC2)[C@H](C)CN([C@@H](C)CO)C(=O)c2cc(NS(=O)(=O)c3cn(C)cn3)ccc2O1 | 36.8% (inactive) | –
63 | C[C@H](CO)N1C[C@H](C)[C@H](CN(C)S(=O)(=O)c2ccccc2)Oc2ccc(NS(=O)(=O)c3ccc(F)cc3)cc2C1=O | -25.5% (inactive) | –
64 | COc1cccc(-c2ccc3c(c2)[C@H]2[C@H](CCN2C(=O)Cc2ccncc2)[C@H](CO)N3C)c1 | 125% (inactive) | –
